Experimental data: paper PMC10914731, “Homo-BacPROTAC-induced degradation of ClpC1 as a strategy against drug-resistant mycobacteria” (Nature Communications, 2024)
≈ marks a conversion by molar mass, not a printed value. Where “and” joins values, the source holds several entries; their conditions need not be identical. Equal values may be shown once. Read-outs that look alike come from different tables or passages of the source.

What was measured:
[1] = Hepatocyte stability, mice; format: in vitro ADME; details: mouse, pH 7.4
In short: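 Parent depletion by HPLC-MS/MS in mouse hepatocyte suspension (50% serum, ~1 million cells/mL) with 1 µM compound over up to 6 h at 37 °C. Half-lives were scaled to % Qh using the well-stirred liver model.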

[2] = biological target: His6-tagged ClpC1-NTD substrate, M. smegmatis ClpC1P1P2 (UniProt A0R574+P9WPC9); test: biochemical; format: biochemical; details: Msm
[3] = test system: Msm 700084; test: microbe, parasite or virus in culture; format: cell-based
[4] = format: in vitro ADME, Rat
In short: (§1)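 Clearance, expressed as % liver blood flow (%Qh), derived by the well-stirred model from first-order half-lives. Depletion monitored by HPLC-MS/MS in acetonitrile-stopped samples over time; 37 °C, NADPH 1 mM, microsomes 0.5 mg/ml, compound 1 µmol/l, Tris-HCl pH 7.5 with MgCl2.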

[5] = test system: M. tuberculosis H37Rv (ATCC 27294); test: microbe, parasite or virus in culture; format: cell-based
[6] = test system: Mtb H37Rv in THP-1 macrophages; test: Intracellular MIC assay in THP-1 macrophages; format: cell-based, Mycobacterium tuberculosis; set-up: Emax: unit not given here
[7] = biological target: ClpC1 NTD protein (M. tuberculosis) (Mycobacterium tuberculosis, UniProt P9WPC9); test: biochemical; format: binding; details: SPR
[8] = in vitro; details: human
In short: (§2)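 Values are bidirectional Caco-2 apparent permeabilities, P(A−B) and P(B−A), given in 10^-6 cm s-1. The efflux ratio divides P(B−A) by P(A−B), and intrinsic permeability averages the two directions.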

[9] = test system: Caco-2 monolayers; test: in vitro; details: human, Caco-2
In short: as §2

[10] = biological target: ClpC1-NTD substrate, M. tuberculosis ClpC1P1P2 (Mycobacterium tuberculosis, UniProt P9WPC9); test: biochemical; format: biochemical; details: Mtb
[11] = format: in vitro ADME, Human; details: human, pH 7.4
[12] = format: in vitro ADME, Mice; details: clearance in microsomes
In short: as §1

[13] = test system: Msm 607; test: microbe, parasite or virus in culture; format: cell-based
[14] = Microsomal stability, human; format: in vitro ADME
In short: as §1

[15] = format: in vitro ADME, Rat; details: rat, pH 7.4
[16] = test system: Mtb (katG del) ATCC 35822; test: microbe, parasite or virus in culture; format: cell-based
[17] = test system: Mtb # 11291; test: microbe, parasite or virus in culture; format: cell-based; details: for MIC: read-out: MIC Mtb # 11291
[18] = test system: Mtb # 8673; test: microbe, parasite or virus in culture; format: cell-based
[19] = test system: Mtb (moxR) FNDR-M1; test: microbe, parasite or virus in culture; format: cell-based
[20] = mean of the measurements, read-out: 1-Dmax, Mean
[21] = mean of the measurements, read-out: DC50, Mean
[22] = Mycobacterium tuberculosis, mean, n = 2 well replicates
[23] = Mycobacterium tuberculosis, single well replicates

His6-tagged ClpC1-NTD substrate, M. smegmatis ClpC1P1P2, sequence (P9WPC9 1-156, looked up, natural form): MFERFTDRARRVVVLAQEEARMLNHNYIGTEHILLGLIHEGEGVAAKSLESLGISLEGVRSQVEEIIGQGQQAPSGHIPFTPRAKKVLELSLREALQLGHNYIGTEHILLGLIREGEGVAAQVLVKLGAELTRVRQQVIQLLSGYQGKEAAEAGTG
His6-tagged ClpC1-NTD substrate, M. smegmatis ClpC1P1P2, sequence (A0R574 whole entry): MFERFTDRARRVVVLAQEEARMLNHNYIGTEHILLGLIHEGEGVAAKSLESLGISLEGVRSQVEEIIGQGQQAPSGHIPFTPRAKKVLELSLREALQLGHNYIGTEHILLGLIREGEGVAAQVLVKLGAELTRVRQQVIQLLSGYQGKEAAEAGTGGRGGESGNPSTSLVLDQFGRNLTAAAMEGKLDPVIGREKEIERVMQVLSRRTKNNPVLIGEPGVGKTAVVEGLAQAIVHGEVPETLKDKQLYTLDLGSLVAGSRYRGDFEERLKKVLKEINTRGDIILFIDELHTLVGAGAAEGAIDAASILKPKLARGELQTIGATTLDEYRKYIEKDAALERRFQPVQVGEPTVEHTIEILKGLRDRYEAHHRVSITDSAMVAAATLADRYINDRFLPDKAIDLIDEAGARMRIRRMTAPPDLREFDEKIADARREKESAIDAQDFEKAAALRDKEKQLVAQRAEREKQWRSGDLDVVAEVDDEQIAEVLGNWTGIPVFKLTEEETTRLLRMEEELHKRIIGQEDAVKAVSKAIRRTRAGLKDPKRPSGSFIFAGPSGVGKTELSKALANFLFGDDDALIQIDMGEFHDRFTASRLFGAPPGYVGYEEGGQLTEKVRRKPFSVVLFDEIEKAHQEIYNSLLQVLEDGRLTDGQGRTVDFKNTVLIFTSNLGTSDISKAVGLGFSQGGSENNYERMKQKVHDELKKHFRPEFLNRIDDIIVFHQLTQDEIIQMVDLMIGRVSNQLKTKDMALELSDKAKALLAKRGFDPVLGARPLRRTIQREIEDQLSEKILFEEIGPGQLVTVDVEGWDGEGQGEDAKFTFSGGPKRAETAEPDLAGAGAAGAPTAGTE
ClpC1 NTD protein (M. tuberculosis), sequence (P9WPC9 1-156, looked up, natural form): as the sequence (P9WPC9 1-156, looked up, natural form) above
ClpC1-NTD substrate, M. tuberculosis ClpC1P1P2, sequence (P9WPC5 whole entry): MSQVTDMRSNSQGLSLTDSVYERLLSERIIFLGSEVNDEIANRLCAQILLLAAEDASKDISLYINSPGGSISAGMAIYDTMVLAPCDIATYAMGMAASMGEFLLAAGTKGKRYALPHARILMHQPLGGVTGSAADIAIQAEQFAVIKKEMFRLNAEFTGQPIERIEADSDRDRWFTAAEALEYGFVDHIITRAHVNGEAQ
ClpC1-NTD substrate, M. tuberculosis ClpC1P1P2, sequence (P9WPC9 whole entry): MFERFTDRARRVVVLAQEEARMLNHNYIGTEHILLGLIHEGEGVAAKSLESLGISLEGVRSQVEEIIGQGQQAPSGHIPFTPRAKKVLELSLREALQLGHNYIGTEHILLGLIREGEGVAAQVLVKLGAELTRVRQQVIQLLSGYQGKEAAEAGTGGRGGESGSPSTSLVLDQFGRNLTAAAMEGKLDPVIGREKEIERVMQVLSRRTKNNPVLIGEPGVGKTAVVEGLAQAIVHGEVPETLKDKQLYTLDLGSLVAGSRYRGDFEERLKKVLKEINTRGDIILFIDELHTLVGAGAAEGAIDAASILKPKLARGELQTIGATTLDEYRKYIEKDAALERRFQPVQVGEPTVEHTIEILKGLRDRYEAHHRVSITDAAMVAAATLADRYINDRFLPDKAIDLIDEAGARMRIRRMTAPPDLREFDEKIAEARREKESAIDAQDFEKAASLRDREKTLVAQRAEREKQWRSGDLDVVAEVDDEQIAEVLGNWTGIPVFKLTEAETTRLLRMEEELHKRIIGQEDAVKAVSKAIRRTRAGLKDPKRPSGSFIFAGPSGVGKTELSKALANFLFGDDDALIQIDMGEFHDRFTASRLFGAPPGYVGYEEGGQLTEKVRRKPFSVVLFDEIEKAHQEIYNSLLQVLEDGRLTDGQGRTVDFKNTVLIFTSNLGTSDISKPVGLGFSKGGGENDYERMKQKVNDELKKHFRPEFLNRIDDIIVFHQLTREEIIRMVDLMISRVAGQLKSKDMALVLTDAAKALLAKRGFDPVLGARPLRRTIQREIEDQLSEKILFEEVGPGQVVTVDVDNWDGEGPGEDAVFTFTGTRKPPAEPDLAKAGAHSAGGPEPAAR
ClpC1-NTD substrate, M. tuberculosis ClpC1P1P2, sequence (P9WPC3 whole entry, further chain): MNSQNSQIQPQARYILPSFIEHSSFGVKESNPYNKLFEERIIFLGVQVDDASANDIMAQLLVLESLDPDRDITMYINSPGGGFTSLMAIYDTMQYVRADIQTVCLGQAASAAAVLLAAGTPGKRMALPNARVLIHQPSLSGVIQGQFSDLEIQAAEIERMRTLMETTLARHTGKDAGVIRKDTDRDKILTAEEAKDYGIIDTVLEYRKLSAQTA

In the case of `CO[C@H](c1ccccc1)[C@@H]1NC(=O)[C@H](C)NC(=O)[C@H](C[C@@H](C)CO)N(C)C(=O)[C@H](Cc2cn(C)c3ccccc23)NC(=O)[C@H](Cc2cn(CCOCCOCCn3cc(C[C@@H]4NC(=O)[C@H](CC(C)C)N(C)C(=O)[C@H](C(C)C)NC(=O)[C@H]([C@H](OC)c5ccccc5)NC(=O)[C@H](C)NC(=O)[C@H](C[C@@H](C)CO)N(C)C(=O)[C@H](Cc5cn(C)c6ccccc56)NC4=O)nn3)nn2)NC(=O)[C@H](CC(C)C)N(C)C(=O)[C@H](C(C)C)NC1=O` [Compound 11], the “Hepatocyte Mice” value [1] is reported as 15 %Qh, the “1-Dmax, single measurements” value ([2]; Measurement 1-6) is reported as 84.8% and 87.6% and 91.1% and the 1-Dmax (percent substrate remaining at maximal degradation) ([2]; Measurement 1-6, read-out: 1-Dmax, single measurements) is reported as 85.6%. For the same molecule, the DC50 ([2]; Measurement 1-6, read-out: DC50, single measurements) was 7400 nM and 6100 nM and 5000 nM and 3900 nM, the 1-Dmax (percent substrate remaining at maximal degradation) [2, 20] was 87% and the DC50 [2, 21] was 5600 nM. For the same molecule, the MIC ([3]; Mycolicibacterium smegmatis, 700084, single determinations, read-out: Msm 700084 MIC) was 1.56 µM (≈ 3.16 µg/mL), the MIC ([3]; Mycolicibacterium smegmatis, 700084, read-out: MIC Msm 700084) was 1.6 µM (≈ 3.24 µg/mL) and the “Microsomal Stability Rat QH” value ([4]; Rat) was <23.1%. The “Microsomal Stability Rat” value ([4]; clearance in microsomes) was < 23 %Qh, the MIC ([5]; Mycobacterium tuberculosis, M. tuberculosis H37Rv strain, read-out: MIC Mtb H37Rv Mean ± SD) was 0.1 µM (≈ 0.203 µg/mL) and the MIC ([5]; Mycobacterium tuberculosis, Mtb H37Rv (Supplementary Table 2), read-out: MIC Mtb) was 0.1 µM (≈ 0.203 µg/mL). The MIC ([5]; Mycobacterium tuberculosis, individual measurements (source data), read-out: Mtb MIC) was 0.097 µM (≈ 0.197 µg/mL), the MIC ([5]; Mycobacterium tuberculosis, single determinations, read-out: Mtb MIC) was 0.097 µM (≈ 0.197 µg/mL) and the MIC ([5]; individual measurements (source data), read-out: Mtb MIC) was 0.097 µM (≈ 0.197 µg/mL). For the same molecule, the Emax [6] was 0.51, the Kd ([7]; individual measurements (source data), read-out: KD ClpC1-NTD) was 0.306 nM and 0.313 nM and 0.72 nM and 0.499 nM and 0.412 nM and 0.253 nM and 0.262 nM and the “koff ClpC1-NTD” value ([7]; single independent measurements) was 0.0009 s⁻¹ and 0.0004 s⁻¹. The Kd ([7]; read-out: ClpC1-NTD KD Mean ± SD) was 0.4 ± 0.2 nM, the efflux ratio ([8]; Caco-2) was 2.6 and the Papp B→A ([8]; Caco-2, CACO permeability PEBA) was 0.36 ×10⁻⁶ cm/s. For the same molecule, the Papp A→B ([8]; Caco-2, Caco-2 permeability P (A-B)) was 1.6 ×10⁻⁶ cm/s, the Papp B→A ([8]; Caco-2, Caco-2 permeability P (B-A)) was 4.2 ×10⁻⁶ cm/s and the “Caco-2 Int. Perm” value [9] was 2.9. For the same molecule, the “1-Dmax, single measurements” value ([10]; Measurement 1-4) was 69.6%, the 1-Dmax (percent substrate remaining at maximal degradation) ([10]; Measurement 1-4, read-out: 1-Dmax, single measurements) was 77.4% and the DC50 ([10]; Measurement 1-4, read-out: DC50, single measurements) was 4700 nM and 5400 nM. For the same molecule, the 1-Dmax (percent substrate remaining at maximal degradation) [10, 20] was 74%, the DC50 [10, 21] was 5100 nM and the “Hepatocyte Human” value [11] was 12 %Qh. The “Hepatocyte Stability Human QH” value [11] was 12.386%, the “Microsomal Stability Mice” value [12] was < 24 %Qh and the MIC ([13]; Mycolicibacterium smegmatis, 607, read-out: MIC Msm 607) was 1.6 µM (≈ 3.24 µg/mL). For the same molecule, the MIC ([13]; Mycolicibacterium smegmatis, 607, read-out: Msm 607 MIC, single determinations) was 1.56 µM (≈ 3.16 µg/mL), the “Microsomal Stability Human QH” value ([14]; Human) was <24.4% and the “Microsomal Stability Human” value ([14]; clearance in microsomes) was < 24 %Qh. For the same molecule, the “Hepatocyte Rat” value [15] was 6 %Qh and the “Hepatocyte Stability Rat QH” value [15] was 6.192%.
For `NNC(=O)c1ccncc1` [Isoniazid], the MIC ([16]; M. tuberculosis ATCC 35822, single well replicates) was >232.22 µM, the MIC ([16]; Mycobacterium tuberculosis, ATCC35822, M. tuberculosis ATCC 35822, single well replicates) was > 232 µM and the MIC ([16]; Mycobacterium tuberculosis, ATCC35822, Mtb (katG del) ATCC 35822, mean ± SD, n = 3 well replicates) was > 232 µM. The MIC [17, 22] was 3.6 µM and 0.5 µg/mL, the MIC [17, 23] was 3.65 µM and 0.5 µg/mL and the “MIC Mtb # 11291” value ([17]; single well replicates) was 0.5 µg/mL (≈ 3.65 µM). For the same molecule, the MIC ([17]; single well replicates) was 3.65 µM (≈ 0.501 µg/mL), the MIC ([5]; M. tuberculosis H37Rv 27294, single well replicates, read-out: MIC) was 0.23 µM (≈ 0.0315 µg/mL) and the MIC ([5]; Mycobacterium tuberculosis, M. tuberculosis H37Rv 27294, single well replicates, read-out: MIC) was 0.23 µM (≈ 0.0315 µg/mL). The MIC ([5]; Mycobacterium tuberculosis, Mtb H37Rv, mean ± SD, n = 3 well replicates, read-out: MIC) was 0.2 µM (≈ 0.0274 µg/mL), the MIC [18, 22] was 467 µM and 64 µg/mL and the MIC [18, 23] was 467 µM and 64 µg/mL. For the same molecule, the MIC ([18]; single well replicates) was 466.68 µM (≈ 64 µg/mL), the “MIC Mtb # 8673” value ([18]; single well replicates) was 64 µg/mL (≈ 467 µM) and the MIC ([19]; M. tuberculosis FNDR-M1, single well replicates) was 0.11 µM (≈ 0.0151 µg/mL). For the same molecule, the MIC ([19]; Mycobacterium tuberculosis, M. tuberculosis FNDR-M1, single well replicates) was 0.11 µM (≈ 0.0151 µg/mL) and the MIC ([19]; Mycobacterium tuberculosis, Mtb (moxR) FNDR-M1, mean ± SD, n = 3 well replicates) was 0.1 µM (≈ 0.0137 µg/mL).
